Results published in patent US4186184A, “Selective administration of drug with ocular therapeutic system” (priority 1979, dated 1980).
Each block holds one molecule with its values, some of them ahead of it.

What was measured:
[1] = Release of drug from osmotic ocular therapeutic system in simulated ocular aqueous environment (UV, 215 nm); format: physicochemical
Method: A drug delivery system for the prolonged release of pilocarpine nitrate to the internal part of the eye is prepared and tested in the following manner: first, a reservoir formed of a drug and a polymer in intimate mixture is prepared according to the described procedure. A 7 gram portion of micronized pilocarpine nitrate is admixed with 3 grams of an ethylene-vinyl acetate copolymer having a vinyl acetate content of about 40% and having a melt index of […], as measured by ASTM D 1238-modified test. The copolymer has a tensile strength of about 600-700 psi and an elongation at break of 1400% to 1500%. It is impermeable to pilocarpine nitrate but permeable to water. […] The pilocarpine nitrate micronized particles are on average ~40 microns in diameter. The mixture is heated to 120° C. and cast as a 0.6 mm thick film. Next, a thin, water and drug impermeable thin film of butyl rubber is laminated to one side of the film thereby forming a system with a single drug portal. Finally, a number of 6 mm discs, suitable in size for insertion and retention in the eye, are cut from the 0.6 mm thick film. These discs have a portal with a surface area of […]. Osmotic bursting devices are the invention of Michaels and Gulloid as described in United States Patent Application Ser. No. 578,979 filed on May 19, 1975.
The release of drug from the ocular therapeutic system is determined by placing the systems in a simulated ocular aqueous environment. The outermost drug depots imbibs water through the sole exposed surface, swell, and burst their enclosing membranes, releasing their drug from the reservoir and exposing innermost depots. The amount of drug released in this rate controlled osmotic system is monitored by a UV spectrometer set at 215 nanometer wavelength. A relatively rapid release of pilocarpine nitrate begins to be noticed. The release continues for about 22 hours at a rate gradually decreasing from an initial 400 micrograms per hour to about 250 micrograms per hour after 22 hours. After 22 hours, the release rate falls rapidly.

[2] = cited from earlier work
[3] = rabbit, in vivo
[4] = in vivo
Method: Ocular dispensing system of elliptical shape for administering a drug to the tissue compartments of the eye over a prolonged period of time and having a length of 4 to 20 millimeters, a width of 1 to 15 millimeters and a thickness of 0.1 to 4 millimeters are prepared by mixing liquid polydimethylsiloxane, chloramphenicol and stannous octate and curing the mixture at room temperature. The resulting matrix is placed in a pre-shaped and sized ethylene-vinyl acetate copolymer tube and the opened end adhesively sealed to provide a solid matrix containing drug. Then, 90% of the exposed surface of the copolymer is surrounded with cross-linked drug impermeable polyamide.

[5] = parameters: species or system New Zealand white rabbits; conditions: rabbit, in vivo
Method: After the ocular systems were in the cul-de-sac 24 hours, they were removed, and a tear sample collected for measuring its pilocarpine content. Then, the systems were returned to the cul-de-sac for one-half hour, the rabbits sacrificed, and an aqueous humor sample immediately withdrawn for measuring the pilocarpine content thereof.
The sutures thus placed, restricted the movement of the ocular systems so that lateral and vertical movement of the ocular systems could not exceed a distance of more than 2 mm. Tear samples were collected and processed in the same way as were tear samples from ocular systems releasing 20 and 40 micrograms per hour.
A second set of ocular systems were used in these experiments and they were manufactured with a size and shape that corresponded to the above ocular systems, except that these latter systems were unireleasing ocular systems. That is, the ocular systems released pilocarpine from a single portal. […] These systems were positioned in the cul-de-sac, with the portal oriented towards the sclera, and tears and aqueous humor samples were taken and analyzed for their pilocarpine content as described above. […]
Selection of an ocular drug receptor site for administering a drug thereto can be easily ascertained by following the above procedures. […] For example, the physiological effect can be determined by measuring ocular pressure and increased vision. […]

[6] = Drug release rate through system membranes (Example 8); format: physicochemical; conditions: area 1 cm^2, membranes 2 mils thick
Method: Following the procedure set forth in Example 1, an ocular drug delivery system shaped like a circle 6 mm by 2.5 mm is prepared according to the described procedure except one of the membrane is formed from commercially available laminate of cellulose acetate and nylon-66 that is substantially impermeable to the passage of hydrocortisone alcohol in the reservoir of the system. The area of the system is 1 cm^2, and the membranes are 2 mils thick. The drug release rate for the ethylene-vinyl acetate copolymer film which is permeable to the steroid is about 40 micrograms per hour, and the release rate for the laminate cellulose acetate nylon is about 1 to 2 micrograms per hour.

[7] = Example 16, single portal osmotic system

Duration of release ([1]; Example 16, release rate falls rapidly thereafter): about 22 hours | Release rate after 22 hours [1, 7]: about 250 micrograms per hour | Release rate, initial [1, 7]: 400 micrograms per hour | Aqueous concentrations of osmotic system compared with diffusional systems [3]: substantially similar
Compound: CC[C@@H]1C(=O)OC[C@@H]1Cc1cncn1C [pilocarpine nitrate]
Solubility in water [2]: about 25%

Compound: O=C(N[C@H](CO)[C@H](O)c1ccc([N+](=O)[O-])cc1)C(Cl)Cl [chloramphenicol]
Discomfort or irritation in the eye [4]: no discomfort or irritation

Absorption and transfer into aqueous humor from bulbar side relative to palpebral side [5]: at least 10 times | Aqueous humor pilocarpine concentration increase per 5 μg/hr increase in rate of release per portal [3]: 0.4 μg/ml per 5 μg/hr | Mean aqueous humor pilocarpine concentration with palpebral delivery relative to bulbar delivery [3]: 11%
Compound: CC[C@@H]1C(=O)OC[C@@H]1Cc1cncn1C [pilocarpine]

Compound: C[C@]12CCC(=O)C=C1CC[C@@H]1[C@@H]2[C@@H](O)C[C@@]2(C)[C@H]1CC[C@]2(O)C(=O)CO [hydrocortisone alcohol]
Drug release rate for the ethylene-vinyl acetate copolymer film [6]: about 40 micrograms per hour
